# Measured values: patent US20190125672A1, “Fabrication of Magnetic Vesicles for Biomedical Imaging and Delivery” (University of Maryland, College Park, priority 2017, published 2019)
# What was measured:
# U87MG tumors = test: In vivo tumor suppression; parameters: species or system mice; conditions: without magnet; Dox-equivalent dose 5 mg/kg i.v.; over 30 days
# Protocol: The therapeutic efficacy was evaluated by monitoring the tumor volume change every two days over 30 days (FIG. 61A).
# The U87MG tumor-bearing mice were randomly divided into six groups with 5 mice in each group. The first group of mice received PBS, as control group; the second group was injected with Dox solution, as “Dox” group; the third group was injected with Dox-MuMVs without magnetic attraction, as “magnet- RGD-” group; the fourth group was injected with RGD-Dox-MuMVs without magnetic enrichment, as “magnet-RGD+” group; the fifth group was injected with Dox-MuMVs under magnetic attraction, as “magnet+RGD-” group; the sixth group was injected with RGD-Dox-MuMVs under magnetic attraction, as “[…]” group. All the experimental groups (2-6 groups) are dispersed in 150 μl PBS before intravenous administration with a Dox-equivalent dose of 5 mg/kg. For the groups under magnetic attraction, the magnet was applied for 1 h along with injection of therapeutic agents. […] after the corresponding treatments, the volume of tumors was measured every other day and calculated by the following equation: V=L×W^2/2. The body weight of the mice was also evaluated during this period to reveal the systemic toxicity of the delivery platform.
# U87MG cells = test: MTT cytotoxicity assay; conditions: Dox concentration
# Protocol: Cells were plated at a density of 1×10^4 in 96-well plates and cultured at 37° C. for 24 hours. Then the culture medium was replaced and the cells were incubated with different concentrations of Dox, Mu magento-vesicles, Dox-Mu magento-vesicles, and RGD-Dox-Mu magento-vesicles for 1 hour. The concentrations of Fe in MuMVs, Dox-MuMVs and RGD-Dox-MuMVs as well as the concentrations of Dox in free drug, Dox-MuMVs and RGD-Dox-MuMVs groups were kept constant for the purpose of comparison. Then the culture medium was replaced with fresh medium and the cells were incubated for another 12 hours, followed by the addition of 20 μL of the MTT solution (5 mg/mL). After incubation for 4 hours, culture supernatants were carefully removed and 100 μL of DMSO was added into each well to dissolve the purple precipitate. The concentration of the reduced MTT in each well was determined spectrophotometrically by subtraction of the absorbance reading at 650 nm from that measured at 570 nm using a microplate reader (SpectraMax M5). Cell viabilities were presented as the percentage of the absorbance of Dox, MuMVs, Dox-MuMVs and RGD-Dox-MuMVs treated cells to the absorbance of non-treated cells and plotted as Fe and Dox concentrations.
structure (smiles),measurement,setting,value
"COc1cccc2c1C(=O)c1c(O)c3c(c(O)c1C2=O)C[C@@](O)(C(=O)CO)C[C@@H]3O[C@H]1C[C@H](N)[C@H](O)[C@H](C)O1 [Dox, doxorubicin]",tumor growth,U87MG tumors,Minor delay in tumor growth
same,IC50,U87MG cells,0.47 µg/mL
